The test has as its system ABCA-1 gene. The experiment in a line: compounds tested and found to elevate cellular expression of the ABCA-1 gene (Examples 1-6; test not named). In kind it is cell-based. As to the method: Activity testing is conducted as described in those patents and patent applications referenced above, and in the Examples below, and by methods apparent to one skilled in the art.
Consider `O=C(NNC(=S)Nc1ccccc1Cl)c1ccccc1Cl` [(2-chlorophenyl)-N-({[(2-chlorophenyl)amino]thioxomethyl}amino)carboxamide], for which the “cellular expression of the ABCA-1 gene” value was “elevate cellular expression of the ABCA-1 gene”.

For the molecule `O=C1CSC(NC(=O)c2ccc(F)c(F)c2)=N1` [(3,4-difluorophenyl)-N-(4-oxo(1,3-thiazolin-2-yl))carboxamide], the “cellular expression of the ABCA-1 gene” value is listed as “elevate cellular expression of the ABCA-1 gene”.

Turning to `CCOc1ccc(C(=O)N(Cc2c3ccccc3cc3ccccc23)C(=O)Nc2ccccc2F)cc1` [N-(9-anthrylmethyl)(4-ethoxyphenyl)-N-{[(2-fluorophenyl)amino]carbonyl}-carboxamide], the “cellular expression of the ABCA-1 gene” value is recorded as “elevate cellular expression of the ABCA-1 gene”.

Take `O=C(Nc1ccc(Cl)cc1)c1sc2ccccc2c1Cl` [(3-chlorobenzo[b]thiophen-2-yl)-N-(4-chlorophenyl)carboxamide]: the “cellular expression of the ABCA-1 gene” value was “elevate cellular expression of the ABCA-1 gene”.

`N#Cc1ccc(C(=O)Nc2nc3ccccc3s2)cc1` [N-benzothiazol-2-yl(4-cyanophenyl)carboxamide]: the “cellular expression of the ABCA-1 gene” value is on record as “elevate cellular expression of the ABCA-1 gene”.

Consider `O=C(Nc1ncc(-c2ccccc2)s1)C1CCCCC1` [cyclohexyl-N-(5-phenyl(1,3-thiazol-2-yl))carboxamide], for which the “cellular expression of the ABCA-1 gene” value is on record as “elevate cellular expression of the ABCA-1 gene”.

Regarding `O=[N+]([O-])c1ccc(OCCOc2ccc([N+](=O)[O-])cc2)cc1` [1-nitro-4-[2-(4-nitrophenoxy)ethoxy]benzene], the “cellular expression of the ABCA-1 gene” value is reported as “elevate cellular expression of the ABCA-1 gene”.

For the molecule `CCOC(=O)CNC(=O)N(CCOC)C(C)c1nc2ccccc2c(=O)n1-c1ccc(Br)cc1` (stereo not drawn) [ethyl 2-[(N-{[3-(4-bromophenyl)-4-oxo(3-hydroquinazolin-2-yl)]ethyl}-N-(2-methoxyethyl)carbamoyl)amino]acetate], the “cellular expression of the ABCA-1 gene” value is reported as “elevate cellular expression of the ABCA-1 gene”.

Take `O=C(NC1=NCCS1)c1ccc(F)cc1` [(4-fluorophenyl)-N-(1,3-thiazolin-2-yl)carboxamide]: the “cellular expression of the ABCA-1 gene” value is given as “elevate cellular expression of the ABCA-1 gene”.

Regarding “2-[({2-[4-(6-chlorobenzothiazol-2-yl)piperazinyl]ethyl}oxycarbonyl)methylthio]acetic acid”, the “cellular expression of the ABCA-1 gene” value was “elevate cellular expression of the ABCA-1 gene”.

In the case of `CC(C)(C)c1ccc(C(=O)N(CCc2ccccn2)Cc2ccccc2[N+](=O)[O-])cc1` [[4-(tert-butyl)phenyl]-N-[(2-nitrophenyl)methyl]-N-(2-(2-pyridyl)ethyl)carboxamide], the “cellular expression of the ABCA-1 gene” value is “elevate cellular expression of the ABCA-1 gene”.

Turning to `CCOC(=O)CNC(=O)N(CCN(C)C)C(C)c1nc2ccccc2c(=O)n1-c1ccc2ccccc2c1` (stereo not drawn) [ethyl 2-({N-[2-(dimethylamino)ethyl]-N-[(3-(2-naphthyl)-4-oxo(3-hydroquinazolin-2-yl))ethyl]carbamoyl}amino)acetate], the “cellular expression of the ABCA-1 gene” value is “elevate cellular expression of the ABCA-1 gene”.

On to `O=C(Nc1nc(-c2ccc(Cl)cc2)cs1)c1cccc(C(F)(F)F)c1` [N-[4-(4-chlorophenyl)(1,3-thiazol-2-yl)][3-(trifluoromethyl)phenyl]carboxamide], for which the “cellular expression of the ABCA-1 gene” value is “elevate cellular expression of the ABCA-1 gene”.

As for `CCCc1c(C(=O)Nc2nc3c(Cl)cccc3s2)cnn1-c1ccc(Cl)cc1` [N-(4-chlorobenzothiazol-2-yl)[1-(4-chlorophenyl)-5-propylpyrazol-4-yl]carboxamide], the “cellular expression of the ABCA-1 gene” value is “elevate cellular expression of the ABCA-1 gene”.

With `CCc1c(C(=O)NCCC(C)C)cnn1-c1nc(-c2ccc(OC)cc2)cs1` [{5-ethyl-1-[4-(4-methoxyphenyl)(1,3-thiazol-2-yl)]pyrazol-4-yl}-N-(3-methylbutyl)carboxamide], the “cellular expression of the ABCA-1 gene” value is on record as “elevate cellular expression of the ABCA-1 gene”.

(Values after patent US6900219B2, “ABCA-1 elevating compounds” (CV Therapeutics, Inc., priority 2002, dated 2005).)
